# Reference: patent US10428134B2, “Immunoglobulins and uses thereof” (JANSSEN PHARMACEUTICA NV, priority 2016, dated 2019)
# Marks after values point to notes of the source that are not given here.
# Columns and labels:
# [1] = Single-dose efficacy in DIO mice: IPGTT, fasting glucose, insulin; details: 0.3 nmol/kg s.c.
# human GCGR = target: T1, human GCGR (Homo sapiens, UniProt P47871); assay: human glucagon receptor cAMP assay; format: cell-based; details: HEK293 cells
# T1 construct: expressed in transfected cells
# Procedure: (§1) For each receptor assay, the clonal cells were seeded into 384-well plates at the appropriate densities ranging from 2000-5000 cells/per well. Compounds were diluted in HBSS supplemented with 5 mM HEPES, 0.1% BSA and 0.5 mM IBMX and added to the cells. […] Standard curves were included in each assay plate for back calculation of cAMP concentrations.
# mouse GLP1R = target: T2, mouse GLP1R (Mus musculus, UniProt O35659); assay: mouse GLP1 receptor cAMP assay; format: cell-based; details: HEK293 cells
# T2 construct: expressed in transfected cells
# T2 sequence (O35659 22-463): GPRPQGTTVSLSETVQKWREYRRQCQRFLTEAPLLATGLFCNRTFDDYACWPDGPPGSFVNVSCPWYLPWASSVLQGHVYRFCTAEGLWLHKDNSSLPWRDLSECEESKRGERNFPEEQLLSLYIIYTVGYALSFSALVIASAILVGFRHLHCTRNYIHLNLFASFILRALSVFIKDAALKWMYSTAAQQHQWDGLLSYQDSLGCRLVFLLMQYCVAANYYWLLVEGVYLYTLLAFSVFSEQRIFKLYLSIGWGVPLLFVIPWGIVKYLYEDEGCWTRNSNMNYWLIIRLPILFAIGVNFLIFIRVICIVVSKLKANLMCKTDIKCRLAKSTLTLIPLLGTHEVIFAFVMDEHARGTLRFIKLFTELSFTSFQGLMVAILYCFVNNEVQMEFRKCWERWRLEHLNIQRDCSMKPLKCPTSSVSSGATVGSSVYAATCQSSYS
# Procedure: as §1
# [2] = OGTT after 8 days of treatment in DIO mice (glucose, insulin); format: in vivo, mouse; details: 0.3 nmol/kg s.c. every day
# Procedure: (§2) Compound 1 was evaluated for its ability to reduce foot intake and body weight and improve glucose homeostasis on repeat dosing in male DIO C57Bl/6 mice over a period of 8 days. Male DIO C57BL/6N mice (20 weeks of age, 14 weeks on high fat diet) were obtained from Taconic Laboratory. […] Animals were acclimated to the facility for at least one week prior to the start of the experiment.
# (§3) The day prior to dosing, mice were grouped based on individual body weights. At 3:00-4:00 pm for each of the next 8 days, animals and food intake were weighed. […] After 8 days, mice are fasted for 5 hours and then given a 2 g/kg bolus of glucose orally at t=0. At t=0, 30, 60, 90, and 120 minutes post glucose challenge blood glucose is measured and at t=0, 30, and 90 minutes blood in drawn to measure plasma insulin. […] All data are presented as the mean±SEM (FIGS. 8 and 9, and Tables 5-8).
# cynomolgus monkey GCGR = assay: cynomolgus monkey glucagon receptor cAMP assay; format: cell-based; details: HEK293 cells
# Procedure: as §1
# [3] = Fed blood glucose after 8 days of treatment in DIO mice; format: in vivo, mouse; details: 0.3 nmol/kg s.c. every day
# Procedure: as §2, §3
# [4] = Repeat dosing in DIO mice: fasting glucose, insulin, FGF21, plasma lipids; format: in vivo, mouse; details: 0.3 nmol/kg s.c. daily
# Procedure: To control for the dosing frequency, all animals were dosed daily. Dosing frequency was determined on the basis of DIO mouse PK data for compound 2 and dulaglutide. Animals in the dulaglutide group received this drug daily. The vehicle-treated animals received vehicle daily. […] The day prior to initiating of dosing, animals were weighed and grouped by body weight. […].
# Beginning 24-hr after the first dosing, three groups of mice were pair-fed (PF) to the 1.0, 2.0, or 4.0 nmol/kg compound 2-treated animals. The amount of food in the hopper of pair-fed mice was adjusted to match the average food consumed in the previous 24 hours by mice in the compound treatment group to which they were being matched. All PF groups were dosed daily with vehicle. On the ninth day (or Day 10 for the pair-fed groups), animals were fasted for 6 hours and body weight and fasting glucose were measured. Blood was collected for measurements of insulin, FGF21 and plasma lipids. The food intake, body weight, body composition, fasting glucose, fasting insulin, fasting FGF21, and fasting plasma lipid data are shown in tables 20-26.
# mouse GCGR = target: T3, mouse GCGR (Mus musculus, UniProt Q61606); assay: mouse glucagon receptor cAMP assay; format: cell-based; details: HEK293 cells
# T3 construct: expressed in transfected cells
# Procedure: as §1
# [5] = Single-dose efficacy in DIO mice: food intake, body weight
# [6] = Weight loss in DIO mice, chronic dosing: body weight; format: in vivo, mouse; details: 0.3 nmol/kg s.c. every day
# Procedure: as §2, §3
# [7] = Single-dose efficacy in DIO mice: plasma FGF21; details: 0.3 nmol/kg s.c., 26 hours after treatment
# T1 sequence (P47871 26-477): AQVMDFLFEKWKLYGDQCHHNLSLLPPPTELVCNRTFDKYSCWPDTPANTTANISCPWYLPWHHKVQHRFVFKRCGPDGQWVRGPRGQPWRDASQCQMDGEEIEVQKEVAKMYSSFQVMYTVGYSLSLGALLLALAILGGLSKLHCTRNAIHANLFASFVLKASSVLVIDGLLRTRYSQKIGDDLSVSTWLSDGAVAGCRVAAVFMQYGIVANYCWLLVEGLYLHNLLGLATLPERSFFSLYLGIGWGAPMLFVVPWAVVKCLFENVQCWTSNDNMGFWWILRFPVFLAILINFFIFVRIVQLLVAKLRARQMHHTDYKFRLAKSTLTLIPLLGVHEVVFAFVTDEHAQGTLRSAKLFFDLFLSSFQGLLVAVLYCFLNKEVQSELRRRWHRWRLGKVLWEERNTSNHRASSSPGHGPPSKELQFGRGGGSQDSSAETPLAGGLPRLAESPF
# T3 sequence (Q61606 27-485): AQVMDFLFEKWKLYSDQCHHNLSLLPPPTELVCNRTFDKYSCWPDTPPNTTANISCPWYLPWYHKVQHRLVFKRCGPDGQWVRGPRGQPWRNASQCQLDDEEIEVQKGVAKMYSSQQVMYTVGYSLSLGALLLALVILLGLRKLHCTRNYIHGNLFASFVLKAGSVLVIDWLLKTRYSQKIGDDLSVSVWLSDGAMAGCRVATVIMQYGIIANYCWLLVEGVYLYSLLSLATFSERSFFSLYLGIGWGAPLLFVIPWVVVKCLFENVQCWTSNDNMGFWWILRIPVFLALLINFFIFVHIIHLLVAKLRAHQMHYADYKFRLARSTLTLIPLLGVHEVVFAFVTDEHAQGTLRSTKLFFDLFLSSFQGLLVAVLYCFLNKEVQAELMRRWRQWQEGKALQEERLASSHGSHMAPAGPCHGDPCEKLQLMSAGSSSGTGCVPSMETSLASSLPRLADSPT
substance,measurement,setting,value
"Dulaglutide: the GLP1R agonist, dulaglutide [reference compound]",Plasma Insulin,[1]; 10 minutes post-glucose (IPGTT),1.7 ± 0.2 ng/mL
same,6 hour fasting Blood Glucose,[1]; 24 hours after treatment,140 ± 7 mg/dL
same,Blood Glucose Net AUC (IPGTT),[1]; 24 hours after treatment,8471 ± 1204
same,blood glucose during IPGTT,"[1]; 24 hours after treatment, 0 min",140 ± 7 mg/dL
same,blood glucose during IPGTT,"[1]; 24 hours after treatment, 10 min",264 ± 18 mg/dL
same,blood glucose during IPGTT,"[1]; 24 hours after treatment, 30 min",267 ± 22 mg/dL
same,blood glucose during IPGTT,"[1]; 24 hours after treatment, 60 min",228 ± 12 mg/dL
same,blood glucose during IPGTT,"[1]; 24 hours after treatment, 90 min",193 ± 9 mg/dL
same,Plasma Insulin,[1]; Pre-glucose (24 hours after treatment),1.6 ± 0.2 ng/mL
same,EC50,human GCGR,> 100 nM
same,EC50,mouse GLP1R,0.035 ± 0.002 nM
same,blood glucose Delta AUC (OGTT),[2],6668 ± 1846 mg/dl/120 min
same,blood glucose Total AUC (OGTT),[2],15758 ± 1054 mg/dl/120 min
same,blood glucose during OGTT,[2]; 0 min after glucose challenge,76 ± 9 mg/dL
same,insulin during OGTT,[2]; 0 min after glucose challenge,0.6 ± 0.1 ng/mL
same,blood glucose during OGTT,[2]; 30 min after glucose challenge,151 ± 14 mg/dL
same,insulin during OGTT,[2]; 30 min after glucose challenge,1.7 ± 0.2 ng/mL
same,blood glucose during OGTT,[2]; 60 min after glucose challenge,174 ± 17 mg/dL
same,blood glucose during OGTT,[2]; 90 min after glucose challenge,104 ± 10 mg/dL
same,insulin during OGTT,[2]; 90 min after glucose challenge,0.7 ± 0.2 ng/mL
same,blood glucose during OGTT,[2]; 120 min after glucose challenge,119 ± 9 mg/dL
same,EC50,cynomolgus monkey GCGR,> 100 nM
same,fed Blood Glucose,[3],114 ± 13 mg/dL
same,plasma Free Fatty Acids,[4]; after repeated dosing,73.2 ± 12.0 µmol/L
same,plasma Free Glycerol,[4]; after repeated dosing,0.5 ± 0.1 mmol/L
same,plasma Total cholesterol,[4]; after repeated dosing,146.1 ± 3.3 mg/dL
same,plasma Triglycerides,[4]; after repeated dosing,24.1 ± 2.3 mg/dL
same,6 hour fasting Blood Glucose,[4]; after repeated dosing (9 days),123 ± 5 mg/dL
same,6 hour fasting Plasma Insulin,[4]; after repeated dosing (9 days),1.4 ± 0.2 ng/mL
same,6 hour fasting plasma FGF21,[4]; after repeated dosing (9 days),0.5 ± 0.1 ng/mL
same,EC50,mouse GCGR,> 100 nM
same,food intake,"[5]; 0.3 nmol/kg group, 24 hours pre-dose",3.1 ± 0.1 grams
same,Weight Change,"[5]; single s.c. dose 0.3 nmol/kg, 18 hours after treatment",−4.1 ± 0.3 %
same,food intake,"[5]; single s.c. dose 0.3 nmol/kg, 18 hours post-dose",1.5 ± 0.1*^ grams
same,body weight,[6]; day 0,45.9 ± 0.6 g
same,body weight,[6]; day 1,44.1 ± 0.6 g
same,body weight,[6]; day 2,42.2 ± 0.6 g
same,body weight,[6]; day 3,40.6 ± 0.6 g
same,body weight,[6]; day 4,39.3 ± 0.6 g
same,body weight,[6]; day 5,38.1 ± 0.7 g
same,body weight,[6]; day 6,37.1 ± 0.8 g
same,body weight,[6]; day 7,36.4 ± 1.0 g
same,body weight,[6]; day 8,36.5 ± 1.1 g
same,body weight,[6]; day −1,46.3 ± 0.6 g
same,Plasma FGF21,[7],0.8 ± 0.2 ng/mL
